{
  "source": "patent US20120165403A1",
  "about": "“METHODS OF INHIBITING THE ACTIVITY OF HSP90 AND/OR ARYL HYDROCARBON RECEPTOR” (UNIVERSITY OF ROCHESTER, priority 2004, published 2012)",
  "key": {"ARNT": {"target": "T1, ARNT (Mus musculus, UniProt P53762)", "T1 construct": "made in house; host or cells: coupled transcription/translation in rabbit reticulocyte lysate (TNT, Promega), 35S-labelled", "T1 sequence (P53762 whole entry)": "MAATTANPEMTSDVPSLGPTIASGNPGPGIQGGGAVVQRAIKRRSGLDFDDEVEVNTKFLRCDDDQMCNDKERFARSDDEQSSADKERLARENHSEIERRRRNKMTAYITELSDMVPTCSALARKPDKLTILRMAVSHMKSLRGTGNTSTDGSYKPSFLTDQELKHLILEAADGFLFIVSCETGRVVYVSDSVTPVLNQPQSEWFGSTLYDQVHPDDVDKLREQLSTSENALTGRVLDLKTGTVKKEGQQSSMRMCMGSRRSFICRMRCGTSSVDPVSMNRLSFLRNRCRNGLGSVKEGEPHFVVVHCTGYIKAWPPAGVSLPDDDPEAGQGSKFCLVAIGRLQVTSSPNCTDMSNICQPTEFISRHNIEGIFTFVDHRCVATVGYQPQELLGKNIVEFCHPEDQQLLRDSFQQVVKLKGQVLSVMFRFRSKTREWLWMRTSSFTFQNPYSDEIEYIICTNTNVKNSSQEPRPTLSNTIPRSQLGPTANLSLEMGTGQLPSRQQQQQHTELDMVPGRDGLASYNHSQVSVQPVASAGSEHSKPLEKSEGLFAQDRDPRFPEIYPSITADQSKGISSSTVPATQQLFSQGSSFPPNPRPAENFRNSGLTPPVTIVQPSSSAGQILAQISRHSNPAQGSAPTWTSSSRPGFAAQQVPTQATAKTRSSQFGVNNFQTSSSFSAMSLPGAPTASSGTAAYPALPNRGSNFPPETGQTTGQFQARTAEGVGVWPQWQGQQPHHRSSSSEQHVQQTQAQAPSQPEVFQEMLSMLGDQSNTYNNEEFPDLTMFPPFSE", "experiment": "Affinity chromatography on EGCG-conjugated Sepharose, in vitro translated ARNT", "format": "binding, murine", "conditions": "35S-ARNT in vitro translated in RRL", "text": "Murine AhR and ARNT cDNA (obtained from J. Whitlock and O. Hankinson, respectively) were inserted into pcDNA3 (Invitrogen, Carlsbad, Calif.). Chicken hsp90 constructs (FIG. 5), c90711hsp (wild-type), c90G94D (wild-type point mutant gly94→Asp (Grenert et al., J. Biol. Chem. 272:23843-23850 (1997), which is hereby incorporated by reference in its entirety), c90D92A (wild-type point mutant Asp92→Ala (Sullivan et al., J. Biol. Chem. 268:20373-20379 (1993), which is hereby incorporated by reference in its entirety), c90N221 (wild-type truncation mutant encoding a.a. 221-728 (Sullivan et al., J. Biol. Chem. 268:20373-20379 (1993), which is hereby incorporated by reference in its entirety)), c90N303 (a.a. 303-728) and c90N538 (a.a. 538-728) were kind gifts from Dr. D. Toft (Rochester, Minn.). The C-terminal truncation mutant c900507 (a.a. 1-221) was obtained from Dr. L. Neckers (Rockville, Md.) (Grenert et al., J. Biol. Chem. 272:23843-23850 (1997); Marcu et al., J. Biol. Chem. 275:37181-37186 (2000), which are hereby incorporated by reference in their entirety). Human p23 cDNA was excised from pQE80-p23 (obtained from W. Chan Stockton, Calif.) by sequential digests using the restriction enzymes Sad (3′-end) and BamHI (5′-end) and inserted into the similarly digested pET28a (Novagen, Madison, Wis.). […]"}, "chicken hsp90": {"system": "chicken hsp90", "experiment": "Affinity chromatography on EGCG-conjugated Sepharose, hsp90 point and truncation mutants", "format": "binding", "text": "Murine AhR and ARNT cDNA (obtained from J. Whitlock and O. Hankinson, respectively) were inserted into pcDNA3 (Invitrogen, Carlsbad, Calif.). Chicken hsp90 constructs (FIG. 5), c90711hsp (wild-type), c90G94D (wild-type point mutant gly94→Asp (Grenert et al., J. Biol. Chem. 272:23843-23850 (1997), which is hereby incorporated by reference in its entirety), c90D92A (wild-type point mutant Asp92→Ala (Sullivan et al., J. Biol. Chem. 268:20373-20379 (1993), which is hereby incorporated by reference in its entirety), c90N221 (wild-type truncation mutant encoding a.a. 221-728 (Sullivan et al., J. Biol. Chem. 268:20373-20379 (1993), which is hereby incorporated by reference in its entirety)), c90N303 (a.a. 303-728) and c90N538 (a.a. 538-728) were kind gifts from Dr. D. Toft (Rochester, Minn.). The C-terminal truncation mutant c900507 (a.a. 1-221) was obtained from Dr. L. Neckers (Rockville, Md.) (Grenert et al., J. Biol. Chem. 272:23843-23850 (1997); Marcu et al., J. Biol. Chem. 275:37181-37186 (2000), which are hereby incorporated by reference in their entirety). Human p23 cDNA was excised from pQE80-p23 (obtained from W. Chan Stockton, Calif.) by sequential digests using the restriction enzymes Sad (3′-end) and BamHI (5′-end) and inserted into the similarly digested pET28a (Novagen, Madison, Wis.). The mouse histidine-tagged XAP2 construct, pET-AIP (Bell et al., J. Biol. Chem. 275:36407-36414 (2000), which is hereby incorporated by reference in its entirety), was a kind gift from Dr. D. Bell (Nottingham, UK). All constructs are in the T7 orientation with the exception of c900507, which is driven by an SP6 promoter.\nAhR, ARNT, hsp90 (wild-type, point mutants, and truncation mutants), p23, and XAP2 were generated (separately) by coupled transcription/translation in rabbit reticulocyte lysate (RRL) using the TNT® system according to the manufacturer's protocol (Promega, Madison Wis.). In this system, ^35S-methionine was included in the transcription/translation mix to generate ^35S-labeled protein.\nEGCG was conjugated to cyanogen bromide (CNBr)-activated Sepharose (Sigma). […]"}},
  "data": [
    {"compound": "O=C(O[C@@H]1Cc2c(O)cc(O)cc2O[C@@H]1c1cc(O)c(O)c(O)c1)c1cc(O)c(O)c(O)c1", "note": "[EGCG, epigallocatechin gallate]", "values": [
      {"measurement": "binding of ARNT to immobilized EGCG", "setting": "ARNT", "value": "incapable of binding immobilized EGCG"},
      {"measurement": "binding of C-terminal hsp90 fragments", "setting": "chicken hsp90; all C-terminal fragments (N221, N303, N538)", "value": "bound EGCG"},
      {"measurement": "binding of N-terminal point mutants D92A, G94D to EGCG-Sepharose", "setting": "chicken hsp90; compared with wild type hsp90", "value": "bound to EGCG-Sepharose as well as or better than the wild type hsp90"},
      {"measurement": "binding of amino-terminal hsp90 fragment C507 to immobilized EGCG", "setting": "chicken hsp90; fragment containing the GA binding site", "value": "failed to bind to immobilized EGCG"}
    ]}
  ]
}
